Like-named read-outs stand apart in the source and are kept apart here.
Assays:
Human 11b-HSD1 = target: T1, Human 11b-HSD1 (Homo sapiens, UniProt P28845); test: Inhibition of cortisone-to-cortisol conversion in CHO-K1 cells over-expressing human 11b-HSD1 (HTRF cortisol assay); assay type: cell-based; conditions: CHO-K1 cells over-expressing human 11b-HSD1, 160 nM cortisone, 3 hours, 37° C.
T1 construct: expressed in transfected cells
Excerpt: (§1) cDNA (human: Accession No. U12978.2; mouse: Accession No. NM_008288.2) coding the full-length amino acid sequence of 11β-HSD1 in a human and a mouse was incorporated into pMSCVpuro (from Clontech. Co. Ltd.), a vector of expressing a mammalian cell for the production of a retrovirus, and the resulting product was introduced into a GP2-293 cell (from Clontech Co. Ltd.), a retrovirus packing cell line together with pVSV-G vector (from Clontech Co. Ltd.) by using a Lipotamine plus reagent (from Invitrogen Co. Ltd.) in accordance with the method set forth in the appendix (by using HTRF cortisol assay kit from Cisbio assays Co., Ltd., catalog No. 62CO2PEB) and stabilized for 48 hours. Thereafter, viruses being obtained from those cells were used to infect CHO-K1 cell (from Korean Cell Line Bank, KCLB No. 10061) and in 24 hours, the cells were treated with 10 μg/ml pumycin (from Sigma Co. Ltd.) for two weeks to produce a stabilized cell system wherein each 11β-HSD1 in humans or in mice was over-expressed. When the cells being maintained, 5 μg/ml of puromycin was put into the medium and used (RPMI (Gibco), 37° C.). • Reference material: The EMBO Journal (2008) 27, 642-653
(§2) The obtained cells with 11b-HSD1 in a human and a mouse being over-expressed were sub-cultured in a 96-well plate with a cell number being 3×10^4 cells per well and stabilized for 24 hours [RPMI (Gibco), at 37° C., as being used in 5 days after thawing]. After a medium as diluted with DMSO including 160 nM of cortisone (from Sigma Co. Ltd.) and a test compound at a different concentration was put into each well in an amount of 200 ul, the well was cultured in a cell cultivator at 37° C. for 3 hours. 10 ul of the cultured solution was put into a 384 well plate and the amount of cortisol as generated was measured using a cortisol kit (from Cisbio international Co. Ltd, HTRF assay) in accordance with the method set forth in the appended manual.
(§3) As a control group, 160 nM of cortisone and 1% of DMSO were put into a corresponding well. The ground value was obtained from a well including only 160 nM of cortisone and 1% of DMSO without cells just like the control group. The calculation for a % inhibition level was made following the manual as appended. • Reference material: The Journal of Steroid Biochemistry and Molecular Biology, Volume 104, Issues 3-5, May 2007, Pages 123-129 • Bioorganic & Medicinal Chemistry Letters Volume 19, Issue 10, 15 May 2009, Pages 2674-2678
(§4) Like the analyzing method as stated above, the efficacy of inhibiting 11b-HSD1 was calculated as IC50 and the results are shown in Table 1: […]

Mouse 11b-HSD1 = target: T2, Mouse 11b-HSD1 (Mus musculus, UniProt P50172); test: Inhibition of cortisone-to-cortisol conversion in CHO-K1 cells over-expressing mouse 11b-HSD1 (HTRF cortisol assay); assay type: cell-based; conditions: CHO-K1 cells over-expressing mouse 11b-HSD1, 160 nM cortisone, 3 hours, 37° C.
T2 construct: expressed in transfected cells
T2 sequence (P50172 whole entry): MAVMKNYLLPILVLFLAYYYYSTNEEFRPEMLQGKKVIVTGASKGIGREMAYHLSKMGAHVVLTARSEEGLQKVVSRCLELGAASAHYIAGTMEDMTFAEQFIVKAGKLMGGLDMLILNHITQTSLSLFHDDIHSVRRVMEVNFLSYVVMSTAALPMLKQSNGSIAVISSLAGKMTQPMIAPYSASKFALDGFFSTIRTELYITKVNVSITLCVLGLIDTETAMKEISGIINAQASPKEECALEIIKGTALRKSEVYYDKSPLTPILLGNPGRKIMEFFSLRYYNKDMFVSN
Excerpt: as §1, §2, §3, §4

11b-HSD1 = target: T3, 11b-HSD1 (Mus musculus, UniProt P50172); test: Ex vivo PD assay: 11b-HSD1 inhibition in abdominal fat and liver tissue after oral administration to mice; conditions: mouse C57B1/6, oral, vs vehicle group; for inhibition at 10 mg/kg: 2 hr; for inhibition at 20 mg/kg: 6 hr
T3 construct: the tissues in abdominal fat and the liver were obtained; from tissue; host or cells: abdominal fat and liver of C57Bl/6 mice
T3 sequence (P50172 whole entry): as above
Method: The prepared compound was orally administered to a mouse (C57B1/6, orient 8 week old, about 25 g, male) and in a proper amount of time (2 hours, 6 hours, 12 hours, 16 hours, and 24 hours), the mouse was sacrificed and around 30 to 40 mg of the tissues in abdominal fat and the liver were obtained. To 500 ul of a medium (RPMI, gibco) including 1 μM of cortisone (from Sigma Co. Ltd.) and 400 μM of NADPH (from Sigma Co. Ltd) was added the tissue as obtained (30-40 mg), which then reacted in a cell cultivator at 37° C. for 3 hours. After 50 ul of the reacted solution was taken and diluted with DMEM medium at a volume ratio of 1/10, the amount of cortisol being generated was measured by using a cortisol kit (assay designs Co. Ltd., ELISA kit) in accordance with the method set forth in the appended manual. From the results being measured, the degree of the inhibition was obtained by the conversion in comparison with the vehicle group (vehicle: 5% DMSO+5% cremophor in dw, the amount being proportionate to the body weight, i.e., the administration was made at the same volume as the drug being introduced). • Reference material: Published Aug. 15, 2005//JEM vol. 202 no. 4 517-527 The Rockefeller University Press % inhibition={(the amount of cortisol of the vehicle group−the amount of the cortisol of the group with the compound being administered)/(the amount of cortisol of the vehicle group)}×100
According to the above analyzing method, the efficacy of inhibiting 11b-HSD1 of the test compound in the target organ was calculated as % inhibition values, which are shown in Table 2 and Table 3.

[1] = abdominal fat, read-out: 11b-HSD1 % inhibition in the fat
[2] = liver, read-out: 11b-HSD1 % inhibition in the liver

T1 sequence (P28845 whole entry): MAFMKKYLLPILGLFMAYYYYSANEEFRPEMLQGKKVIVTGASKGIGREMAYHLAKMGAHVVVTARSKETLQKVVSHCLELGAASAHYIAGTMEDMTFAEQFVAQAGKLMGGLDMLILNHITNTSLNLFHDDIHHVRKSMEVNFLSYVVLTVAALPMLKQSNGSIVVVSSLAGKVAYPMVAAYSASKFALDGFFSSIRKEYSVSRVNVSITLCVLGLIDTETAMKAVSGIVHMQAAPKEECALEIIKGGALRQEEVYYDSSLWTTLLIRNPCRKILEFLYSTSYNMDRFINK

Compound | IC50 (Human 11b-HSD1) [nM] | IC50 (Mouse 11b-HSD1) [nM] | inhibition at 10 mg/kg (11b-HSD1; [1]) [%] | inhibition at 10 mg/kg (11b-HSD1; [2]) [%] | inhibition at 20 mg/kg (11b-HSD1; [1]) [%] | inhibition at 20 mg/kg (11b-HSD1; [2]) [%]
NC(=O)[C@]12CC3CC(C1)[C@@H](NC(=O)c1ccc(-c4ccccc4)o1)C(C3)C2 [Example 1, N-(5-carbamoyl-2-adamantyl)-5-phenylfuran-2-carboxamide] | < 100 | < 100 | 91 | 85 | 83 | 70
NC(=O)[C@]12CC3CC(C1)[C@@H](NC(=O)c1ccc(-c4ccc(Cl)cc4)o1)C(C3)C2 [Example 2, N-(5-carbamoyl-2-adamantyl)-5-(4-chlorophenyl)furan-2-carboxamide] | < 100 | 100 to 500 | 84 | 68 | 85 | 44
NC(=O)[C@]12CC3CC(C1)[C@@H](NC(=O)c1cccc4cccnc14)C(C3)C2 [Example 19, N-(5-carbamoyl-2-adamantyl)quinoline-8-carboxamide] | < 100 | < 100 | 51 | 50 | – | –
NC(=O)[C@]12CC3CC(C1)[C@@H](NC(=O)c1ccc(-c4cccc(Cl)c4)o1)C(C3)C2 [Example 26, N-(5-carbamoyl-2-adamantyl)-5-(3-chlorophenyl)furan-2-carboxamide] | < 100 | < 100 | – | – | 71 | 47
NC(=O)[C@]12CC3CC(C1)[C@@H](NC(=O)c1ccc(-c4ccccc4Cl)o1)C(C3)C2 [Example 27, N-(5-carbamoyl-2-adamantyl)-5-(2-chlorophenyl)furan-2-carboxamide] | < 100 | < 100 | – | – | 80 | 65
NC(=O)[C@]12CC3CC(C1)[C@@H](NC(=O)c1ccc(-c4ccccc4F)o1)C(C3)C2 [Example 30, N-(5-carbamoyl-2-adamantyl)-5-(2-fluorophenyl)furan-2-carboxamide] | < 100 | < 100 | – | – | 72 | 69
Cn1c(C(=O)N[C@H]2C3CC4CC2C[C@](C(N)=O)(C4)C3)ccc1-c1ccccc1 [Example 34, N-(5-carbamoyl-2-adamantyl)-1-methyl-5-phenylpyrrole-2-carboxamide] | < 100 | < 100 | – | – | 96 | 92
CCOc1cccc2ccc(C(=O)N[C@H]3C4CC5CC3C[C@](C(N)=O)(C5)C4)nc12 [Example 51, N-(5-carbamoyl-2-adamantyl)-8-ethoxyquinoline-2-carboxamide] | < 100 | < 100 | – | – | – | –
CC(C)Oc1cccc2ccc(C(=O)N[C@H]3C4CC5CC3C[C@](C(N)=O)(C5)C4)nc12 [Example 52, N-(5-carbamoyl-2-adamantyl)-8-propan-2-yloxyquinoline-2-carboxamide] | < 100 | 100 to 500 | – | – | – | –
NC(=O)[C@]12CC3CC(C1)[C@@H](NC(=O)c1ccc4cccc(OCc5ccccc5)c4n1)C(C3)C2 [Example 53] | < 100 | > 500 | – | – | – | –
CC(C)COc1cccc2ccc(C(=O)N[C@H]3C4CC5CC3C[C@](C(N)=O)(C5)C4)nc12 [Example 54, N-(5-carbamoyl-2-adamantyl)-8-(2-methylpropoxy)quinoline-2-carboxamide] | < 100 | > 500 | – | – | – | –
CCC(C)Oc1cccc2ccc(C(=O)N[C@H]3C4CC5CC3C[C@](C(N)=O)(C5)C4)nc12 (stereo partly drawn) [Example 56, 8-butan-2-yloxy-N-(5-carbamoyl-2-adamantyl)quinoline-2-carboxamide] | < 100 | 100 to 500 | – | – | – | –
CN(C)c1cccc(C(=O)N[C@H]2C3CC4CC2C[C@](C(N)=O)(C4)C3)[n+]1[O-] [Example 65, N-(5-carbamoyl-2-adamantyl)-6-(dimethylamino)-1-oxidopyridin-1-ium-2-carboxamide] | < 100 | 100 to 500 | – | – | – | –

Continued, values first:

IC50 (Human 11b-HSD1) [nM] | IC50 (Mouse 11b-HSD1) [nM] | inhibition at 10 mg/kg (11b-HSD1; [1]) [%] | inhibition at 10 mg/kg (11b-HSD1; [2]) [%] | inhibition at 20 mg/kg (11b-HSD1; [1]) [%] | inhibition at 20 mg/kg (11b-HSD1; [2]) [%] | Compound
< 100 | < 100 | 58 | 62 | 65 | 61 | NC(=O)[C@]12CC3CC(C1)[C@@H](NC(=O)c1ccc4ccccc4n1)C(C3)C2 [Example 18, N-(5-carbamoyl-2-adamantyl)quinoline-2-carboxamide]
< 100 | 100 to 500 | – | – | – | – | COc1cccc2ccc(C(=O)N[C@H]3C4CC5CC3C[C@](C(N)=O)(C5)C4)nc12 [Example 50, N-(5-carbamoyl-2-adamantyl)-8-methoxyquinoline-2-carboxamide]
< 100 | < 100 | – | – | – | – | CN(C)c1cccc(C(=O)N[C@H]2C3CC4CC2C[C@](C(N)=O)(C4)C3)n1 [Example 57, N-(5-carbamoyl-2-adamantyl)-6-(dimethylamino)pyridine-2-carboxamide]
< 100 | < 100 | – | – | – | – | NC(=O)[C@]12CC3CC(C1)[C@@H](NC(=O)c1cccc(N4CCCCC4)n1)C(C3)C2 [Example 58, N-(5-carbamoyl-2-adamantyl)-6-piperidin-1-yl-pyridine-2-carboxamide]
< 100 | < 100 | – | – | – | – | CCN(CC)c1cccc(C(=O)N[C@H]2C3CC4CC2C[C@](C(N)=O)(C4)C3)n1 [Example 59, N-(5-carbamoyl-2-adamantyl)-6-(diethylamino)pyridine-2-carboxamide]
< 100 | < 100 | – | – | – | – | CCCNc1cccc(C(=O)N[C@H]2C3CC4CC2C[C@](C(N)=O)(C4)C3)n1 [Example 60, N-(5-carbamoyl-2-adamantyl)-6-(propylamino)pyridine-2-carboxamide]
< 100 | < 100 | – | – | – | – | NC(=O)[C@]12CC3CC(C1)[C@@H](NC(=O)c1cccc(N4CCc5ccccc5C4)n1)C(C3)C2 [Example 61, N-(5-carbamoyl-2-adamantyl)6-(3,4-dihydro-1H-isoquinolin-2-yl)pyridine-2-carboxamide]
< 100 | 100 to 500 | – | – | – | – | NC(=O)[C@]12CC3CC(C1)[C@@H](NC(=O)c1cccc(N4CCC(c5ccccc5)CC4)n1)C(C3)C2 [Example 62, N-(5-carbamoyl-2-adamantyl)-6-(4-phenylpiperidin-1-yl)pyridine-2-carboxamide]
100 to 500 | > 500 | – | – | – | – | Cc1cccc(C(=O)N[C@H]2C3CC4CC2C[C@](C(N)=O)(C4)C3)[n+]1[O-] [Example 63, N-(5-carbamoyl-2-adamantyl)-6-methyl-1-oxidopyridine-1-ium-2-carboxamide]

Source: patent US9233957B2, “5-carbamoyl-adamantan-2-yl amide derivatives, pharmaceutically acceptable salts thereof and preparation process thereof” (SK BIOPHARMACEUTICALS CO., LTD., priority 2011, dated 2016)
